Experimental data published in patent US6914045B2, “Glycopeptide antibiotics” (Wyeth Holdings Corporation, priority 2001, dated 2005).
Converted amounts (≈) assume the structure as drawn.

Experiments:
Assay in all cases: in vitro antibacterial evaluation, MIC by broth dilution
Format in all cases: cell-based
Staphylococcus sp. = conditions: broth dilution, 18 hours at 35° C.; for MIC Staphylococcus aureus (GC 1131): strain GC 1131
In short: (§1)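 Broth dilution per NCCLS M7-A2 in Mueller-Hinton II medium, inoculum 5×10^5 CFU/mL, antibiotic range 64-0.06 μg/mL. MIC taken as lowest concentration inhibiting growth; Gram-positive panel includes recent clinical isolates resistant to methicillin, penicillin and/or vancomycin.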

Enterococcus sp. = conditions: broth dilution, 18 hours at 35° C.; for MIC Enterococcus faecalis (ATCC 29212): strain ATCC 29212; for MIC Enterococcus faecalis (GC 2242): strain GC 2242; for MIC Enterococcus faecium (GC 2243): strain GC 2243; for MIC Enterococcus faecalis (GC 2691): strain GC 2691; for MIC Enterococcus faecalis (GC 3059): strain GC 3059; for MIC Enterococcus faecalis (GC 4552): strain GC 4552; for MIC Enterococcus faecalis (GC 4553): strain GC 4553; for MIC Enterococcus faecalis (GC 4554): strain GC 4554; for MIC Enterococcus faecium (GC 4556): strain GC 4556; for MIC Enterococcus faecium (GC 4557): strain GC 4557; for MIC Enterococcus avium (GC 4558): strain GC 4558; for MIC Enterococcus faecalis (GC 6189): strain GC 6189
In short: as §1

Escherichia coli = tested on: Escherichia coli
In short: as §1

Streptococcus sp. = conditions: broth dilution, 18 hours at 35° C.; for MIC Streptococcus pneumoniae (ATCC 6301): strain ATCC 6301; for MIC Streptococcus pneumoniae (GC 1894): strain GC 1894; for MIC Streptococcus pyogenes (GC 4563): strain GC 4563; for MIC Streptococcus agalactiae (GC 4564): strain GC 4564; for MIC Streptococcus pneumoniae (GC 4565): strain GC 4565
In short: as §1

**Q.** For `CC(c1ccccc1)C1NC(=O)CNC(=O)C(CO)NC(=O)C(C(O)C2CNC(=N)N2C2OC(CO)C(O)C(O)C2O)NC(=O)C(C(O)C2CNC(=N)N2)NC(=O)C(Cc2ccc(OC3OC(CO)C(OC4OC5COC(c6cccc(Oc7ccccc7)c6)OC5C(O)C4O)C(O)C3O)cc2)NC1=O` (centres unmarked) [Example 170], which “MIC Staphylococcus aureus (GC 1131)” value (Staphylococcus sp.; inoculum 5×10^5 CFU/mL) is on record?
**A.** 4 µg/mL (≈ 2.71 µM)

**Q.** What about the “MIC Staphylococcus aureus (ATCC 29213)” value (Staphylococcus sp.; strain ATCC 29213) of the same molecule?
**A.** 4 µg/mL (≈ 2.71 µM)

**Q.** What about the “MIC Staphylococcus aureus (GC 1131)” value (Staphylococcus sp.) of the same molecule?
**A.** 4 µg/mL (≈ 2.71 µM)

**Q.** What about the “MIC Staphylococcus aureus (GC 3051)” value (Staphylococcus sp.; strain GC 3051) of the same molecule?
**A.** 4 µg/mL (≈ 2.71 µM)

**Q.** What about the “MIC Staphylococcus aureus (GC 3053)” value (Staphylococcus sp.; strain GC 3053) of the same molecule?
**A.** 1 µg/mL (≈ 0.678 µM)

**Q.** What about the “MIC Staphylococcus aureus (GC 4541)” value (Staphylococcus sp.; strain GC 4541) of the same molecule?
**A.** 2 µg/mL (≈ 1.36 µM)

**Q.** What about the “MIC Staphylococcus aureus (GC 4542)” value (Staphylococcus sp.; strain GC 4542) of the same molecule?
**A.** 4 µg/mL (≈ 2.71 µM)

**Q.** And the “MIC Staphylococcus aureus-SMITH (GC 4543)” value (Staphylococcus sp.; strain GC 4543)?
**A.** 4 µg/mL (≈ 2.71 µM)

**Q.** What about the “MIC Staphylococcus aureus (GC 4544)” value (Staphylococcus sp.; strain GC 4544) of the same molecule?
**A.** 2 µg/mL (≈ 1.36 µM)

**Q.** And the “MIC Staphylococcus aureus (GC 4545)” value (Staphylococcus sp.; strain GC 4545)?
**A.** 4 µg/mL (≈ 2.71 µM)

**Q.** What about the “MIC Staphylococcus haemolyticus (GC 4546)” value (Staphylococcus sp.; strain GC 4546) of the same molecule?
**A.** 8 µg/mL (≈ 5.42 µM)

**Q.** And the “MIC Coagulase Negative Staphylococcus (GC 4547)” value (Staphylococcus sp.; strain GC 4547)?
**A.** 4 µg/mL (≈ 2.71 µM)

**Q.** And the “MIC Coagulase Negative Staphylococcus (GC 4548)” value (Staphylococcus sp.; strain GC 4548)?
**A.** 1 µg/mL (≈ 0.678 µM)

**Q.** What about the “MIC Coagulase Negative Staphylococcus (GC 4549)” value (Staphylococcus sp.; strain GC 4549) of the same molecule?
**A.** 2 µg/mL (≈ 1.36 µM)

**Q.** And the “MIC Coagulase Negative Staphylococcus (GC 4551)” value (Staphylococcus sp.; strain GC 4551)?
**A.** 1 µg/mL (≈ 0.678 µM)

**Q.** What about the “MIC Coagulase Negative Staphylococcus (GC 6257)” value (Staphylococcus sp.; strain GC 6257) of the same molecule?
**A.** 1 µg/mL (≈ 0.678 µM)

**Q.** What about the “MIC Enterococcus faecalis (ATCC 29212)” value (Enterococcus sp.; inoculum 5×10^5 CFU/mL) of the same molecule?
**A.** 4 µg/mL (≈ 2.71 µM)

**Q.** What about the “MIC Enterococcus faecalis (GC 2242)” value (Enterococcus sp.; inoculum 5×10^5 CFU/mL) of the same molecule?
**A.** 4 µg/mL (≈ 2.71 µM)

**Q.** What about the “MIC Enterococcus faecium (GC 2243)” value (Enterococcus sp.; inoculum 5×10^5 CFU/mL) of the same molecule?
**A.** 4 µg/mL (≈ 2.71 µM)

**Q.** What about the “MIC Enterococcus faecalis (GC 2691)” value (Enterococcus sp.; inoculum 5×10^5 CFU/mL) of the same molecule?
**A.** 4 µg/mL (≈ 2.71 µM)

**Q.** And the “MIC Enterococcus faecalis (GC 3059)” value (Enterococcus sp.; inoculum 5×10^5 CFU/mL)?
**A.** 4 µg/mL (≈ 2.71 µM)

**Q.** What about the “MIC Enterococcus faecalis (GC 4552)” value (Enterococcus sp.; inoculum 5×10^5 CFU/mL) of the same molecule?
**A.** 4 µg/mL (≈ 2.71 µM)

**Q.** And the “MIC Enterococcus faecalis (GC 4553)” value (Enterococcus sp.; inoculum 5×10^5 CFU/mL)?
**A.** 4 µg/mL (≈ 2.71 µM)

**Q.** And the “MIC Enterococcus faecalis (GC 4554)” value (Enterococcus sp.; inoculum 5×10^5 CFU/mL)?
**A.** 2 µg/mL (≈ 1.36 µM)

**Q.** What about the “MIC Enterococcus faecium (GC 4556)” value (Enterococcus sp.; inoculum 5×10^5 CFU/mL) of the same molecule?
**A.** 4 µg/mL (≈ 2.71 µM)

**Q.** And the “MIC Enterococcus faecium (GC 4557)” value (Enterococcus sp.; inoculum 5×10^5 CFU/mL)?
**A.** 4 µg/mL (≈ 2.71 µM)

**Q.** And the “MIC Enterococcus avium (GC 4558)” value (Enterococcus sp.; inoculum 5×10^5 CFU/mL)?
**A.** 4 µg/mL (≈ 2.71 µM)

**Q.** And the “MIC Enterococcus faecalis (GC 6189)” value (Enterococcus sp.; inoculum 5×10^5 CFU/mL)?
**A.** 4 µg/mL (≈ 2.71 µM)

**Q.** And the “MIC Enterococcus faecalis (ATCC 29212)” value (Enterococcus sp.)?
**A.** 4 µg/mL (≈ 2.71 µM)

**Q.** And the “MIC Enterococcus faecalis (GC 2242)” value (Enterococcus sp.)?
**A.** 4 µg/mL (≈ 2.71 µM)

**Q.** And the “MIC Enterococcus faecium (GC 2243)” value (Enterococcus sp.)?
**A.** 4 µg/mL (≈ 2.71 µM)

**Q.** And the “MIC Enterococcus faecalis (GC 2691)” value (Enterococcus sp.)?
**A.** 4 µg/mL (≈ 2.71 µM)

**Q.** What about the “MIC Enterococcus faecalis (GC 3059)” value (Enterococcus sp.) of the same molecule?
**A.** 4 µg/mL (≈ 2.71 µM)

**Q.** And the “MIC Enterococcus faecalis (GC 4552)” value (Enterococcus sp.)?
**A.** 4 µg/mL (≈ 2.71 µM)

**Q.** And the “MIC Enterococcus faecalis (GC 4553)” value (Enterococcus sp.)?
**A.** 4 µg/mL (≈ 2.71 µM)

**Q.** What about the “MIC Enterococcus faecalis (GC 4554)” value (Enterococcus sp.) of the same molecule?
**A.** 2 µg/mL (≈ 1.36 µM)

**Q.** What about the “MIC Enterococcus faecium (GC 4556)” value (Enterococcus sp.) of the same molecule?
**A.** 4 µg/mL (≈ 2.71 µM)

**Q.** What about the “MIC Enterococcus faecium (GC 4557)” value (Enterococcus sp.) of the same molecule?
**A.** 4 µg/mL (≈ 2.71 µM)

**Q.** What about the “MIC Enterococcus avium (GC 4558)” value (Enterococcus sp.) of the same molecule?
**A.** 4 µg/mL (≈ 2.71 µM)

**Q.** And the “MIC Enterococcus faecalis (GC 6189)” value (Enterococcus sp.)?
**A.** 4 µg/mL (≈ 2.71 µM)

**Q.** And the “MIC Escherichia coli (ATCC 25922)” value (Escherichia coli; strain ATCC 25922, 18 hours at 35° C.)?
**A.** >64 µg/mL

**Q.** And the “MIC Escherichia coli (GC 4559)” value (Escherichia coli; strain GC 4559, 18 hours at 35° C.)?
**A.** >64 µg/mL

**Q.** What about the “MIC Escherichia coli (GC 4560)” value (Escherichia coli; strain GC 4560, 18 hours at 35° C.) of the same molecule?
**A.** 4 µg/mL (≈ 2.71 µM)

**Q.** And the “MIC Streptococcus pneumoniae (ATCC 6301)” value (Streptococcus sp.; inoculum 5×10^5 CFU/mL)?
**A.** <0.06 µg/mL

**Q.** What about the “MIC Streptococcus pneumoniae (GC 1894)” value (Streptococcus sp.; inoculum 5×10^5 CFU/mL) of the same molecule?
**A.** <0.06 µg/mL

**Q.** And the “MIC Streptococcus pyogenes (GC 4563)” value (Streptococcus sp.; inoculum 5×10^5 CFU/mL)?
**A.** <0.06 µg/mL

**Q.** And the “MIC Streptococcus agalactiae (GC 4564)” value (Streptococcus sp.; inoculum 5×10^5 CFU/mL)?
**A.** <0.06 µg/mL

**Q.** And the “MIC Streptococcus pneumoniae (GC 4565)” value (Streptococcus sp.; inoculum 5×10^5 CFU/mL)?
**A.** <0.06 µg/mL

**Q.** And the “MIC Streptococcus pneumoniae (ATCC 6301)” value (Streptococcus sp.)?
**A.** <0.06 µg/mL

**Q.** And the “MIC Streptococcus pneumoniae (GC 1894)” value (Streptococcus sp.)?
**A.** <0.06 µg/mL

**Q.** What about the “MIC Streptococcus pyogenes (GC 4563)” value (Streptococcus sp.) of the same molecule?
**A.** <0.06 µg/mL

**Q.** And the “MIC Streptococcus agalactiae (GC 4564)” value (Streptococcus sp.)?
**A.** <0.06 µg/mL

**Q.** What about the “MIC Streptococcus pneumoniae (GC 4565)” value (Streptococcus sp.) of the same molecule?
**A.** <0.06 µg/mL
